The source of these data is patent publication US20250332178A1, “METHODS OF TREATING MYCOBACTERIAL INFECTIONS USING TETRACYCLINE COMPOUNDS” (priority 2018, published 2025).

The conditions of series [1]: 52 patients, M. abscessus and M. chelonae infections; Wallace et al.; cited from earlier work.
For series [2] the following is noted: in vivo; cited from earlier work.
A further series relates to M. intracellulare. Nature of the series: MIC (CLSI broth dilution), slow-growing NTM isolates. Format: cell-based. (In general: Dilution methods test growth across graded concentrations, often in twofold steps.)
Another series has as its system M. chimaera. Described as above. Format: cell-based.

Converted amounts (≈) assume the structure as drawn.

On to `CN(C)c1cc(NC(=O)CNC(C)(C)C)c(O)c2c1C[C@H]1C[C@H]3[C@H](N(C)C)C(O)=C(C(N)=O)C(=O)[C@@]3(O)C(O)=C1C2=O` [Tigecycline, tigecycline], for which, in series [1], the “dose reductions due to nausea, vomiting or anorexia” value is listed as “Approximately half of the patients had dose reductions”.
Turning to `CN(C)c1cc(CNCC(C)(C)C)c(O)c2c1C[C@H]1C[C@H]3C(N(C)C)C(O)=C(C(N)=O)C(=O)[C@@]3(O)C(O)=C1C2=O` (stereo partly drawn) [Omadacycline, (4aS,5aR,12aS)-4,7-bis(dimethylamino)-3,10,12,12a-tetrahydroxy-9-((neopentylamino)methyl)-1,11-dioxo-1,4,4a,5,5a,6,11,12a-octahydrotetracene-2-carboxamide], the “24-hour area under the curve compared to tigecycline” value in series [2] was “approximately three-fold higher”.
In the case of `NCC[C@H](O)C(=O)N[C@@H]1C[C@H](N)[C@@H](O[C@H]2O[C@H](CN)[C@@H](O)[C@H](O)[C@H]2O)[C@H](O)[C@H]1O[C@H]1O[C@H](CO)[C@@H](O)[C@H](N)[C@H]1O` [Amikacin, amikacin], the MIC against M. intracellulare (isolate 6, MAC) worked out at 8 µg/mL (≈ 13.7 µM); against M. intracellulare (isolate 7, MAC) it was 8 µg/mL (≈ 13.7 µM); in the series with M. intracellulare (isolate 8, MAC), 16 µg/mL (≈ 27.3 µM); in the series on M. intracellulare (isolate 9, MAC), 16 µg/mL (≈ 27.3 µM); against M. intracellulare (isolate 10, MAC) it was 16 µg/mL (≈ 27.3 µM); in the series on M. chimaera (isolate 4, MAC), 8 µg/mL (≈ 13.7 µM). The MIC in the series with M. chimaera (isolate 5, MAC) amounted to 8 µg/mL (≈ 13.7 µM).

As a reminder, the MIC is the smallest concentration in the dilution series that meets the test's criterion for growth inhibition.
